Laboratory results from PMC7180948, “New Insights into 4-Anilinoquinazolines as Inhibitors of Cardiac Troponin I–Interacting Kinase (TNNi3K)” (Molecules, 2020).

Experiments:
Test in all cases: biochemical
Set-up in all cases: KINOMEscan competition binding panel (Eurofins DiscoverX), single concentration, percent inhibition
Conditions in all cases: read-out: 15 at 1 µM % inhibition
TSSK3 = TSSK3 (Homo sapiens, UniProt Q96PN8)
In short: (§1)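 Compounds were submitted at 1 µM to a KINOMEscan assay covering more than 400 human kinases. The screen served to define the selectivity profile.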

PRKCH = PRKCH (Homo sapiens, UniProt P24723)
In short: as §1

DDR2 = DDR2 (Homo sapiens, UniProt Q16832)
In short: as §1

SLK = SLK (Homo sapiens, UniProt Q9H2G2)
In short: as §1

IRAK3 = IRAK3 (Homo sapiens, UniProt Q9Y616)
In short: as §1

TRKA = target: T1, TRKA (Homo sapiens, UniProt P04629)
T1 construct: gene NTRK1
In short: as §1

PRKG1 = PRKG1 (Homo sapiens, UniProt Q13976)
In short: as §1

PAK6 = PAK6 (Homo sapiens, UniProt Q9NQU5)
In short: as §1

ROCK1 = ROCK1 (Homo sapiens, UniProt Q13464)
In short: as §1

[1] = target: T2, ABL1(Q252H)-nonphosphorylated (Homo sapiens, UniProt P00519, Q252H)
T2 construct: nonphosphorylated
In short: as §1

TRKC = target: T3, TRKC (Homo sapiens, UniProt Q16288)
T3 construct: gene NTRK3
In short: as §1

ABL1-nonphosphorylated = target: T4, ABL1-nonphosphorylated (Homo sapiens, UniProt P00519)
T4 construct: nonphosphorylated
In short: as §1

TTK = TTK (Homo sapiens, UniProt P33981)
In short: as §1

CAMK2B = CAMK2B (Homo sapiens, UniProt Q13554)
In short: as §1

PRKR = target: T5, PRKR (Homo sapiens, UniProt P19525)
T5 construct: gene EIF2AK2
In short: as §1

[2] = target: T6, ABL1(H396P)-phosphorylated (Homo sapiens, UniProt P00519, H396P)
T6 construct: phosphorylated
In short: as §1

MET = MET (Homo sapiens, UniProt P08581)
Chain of MET (P08581 whole entry): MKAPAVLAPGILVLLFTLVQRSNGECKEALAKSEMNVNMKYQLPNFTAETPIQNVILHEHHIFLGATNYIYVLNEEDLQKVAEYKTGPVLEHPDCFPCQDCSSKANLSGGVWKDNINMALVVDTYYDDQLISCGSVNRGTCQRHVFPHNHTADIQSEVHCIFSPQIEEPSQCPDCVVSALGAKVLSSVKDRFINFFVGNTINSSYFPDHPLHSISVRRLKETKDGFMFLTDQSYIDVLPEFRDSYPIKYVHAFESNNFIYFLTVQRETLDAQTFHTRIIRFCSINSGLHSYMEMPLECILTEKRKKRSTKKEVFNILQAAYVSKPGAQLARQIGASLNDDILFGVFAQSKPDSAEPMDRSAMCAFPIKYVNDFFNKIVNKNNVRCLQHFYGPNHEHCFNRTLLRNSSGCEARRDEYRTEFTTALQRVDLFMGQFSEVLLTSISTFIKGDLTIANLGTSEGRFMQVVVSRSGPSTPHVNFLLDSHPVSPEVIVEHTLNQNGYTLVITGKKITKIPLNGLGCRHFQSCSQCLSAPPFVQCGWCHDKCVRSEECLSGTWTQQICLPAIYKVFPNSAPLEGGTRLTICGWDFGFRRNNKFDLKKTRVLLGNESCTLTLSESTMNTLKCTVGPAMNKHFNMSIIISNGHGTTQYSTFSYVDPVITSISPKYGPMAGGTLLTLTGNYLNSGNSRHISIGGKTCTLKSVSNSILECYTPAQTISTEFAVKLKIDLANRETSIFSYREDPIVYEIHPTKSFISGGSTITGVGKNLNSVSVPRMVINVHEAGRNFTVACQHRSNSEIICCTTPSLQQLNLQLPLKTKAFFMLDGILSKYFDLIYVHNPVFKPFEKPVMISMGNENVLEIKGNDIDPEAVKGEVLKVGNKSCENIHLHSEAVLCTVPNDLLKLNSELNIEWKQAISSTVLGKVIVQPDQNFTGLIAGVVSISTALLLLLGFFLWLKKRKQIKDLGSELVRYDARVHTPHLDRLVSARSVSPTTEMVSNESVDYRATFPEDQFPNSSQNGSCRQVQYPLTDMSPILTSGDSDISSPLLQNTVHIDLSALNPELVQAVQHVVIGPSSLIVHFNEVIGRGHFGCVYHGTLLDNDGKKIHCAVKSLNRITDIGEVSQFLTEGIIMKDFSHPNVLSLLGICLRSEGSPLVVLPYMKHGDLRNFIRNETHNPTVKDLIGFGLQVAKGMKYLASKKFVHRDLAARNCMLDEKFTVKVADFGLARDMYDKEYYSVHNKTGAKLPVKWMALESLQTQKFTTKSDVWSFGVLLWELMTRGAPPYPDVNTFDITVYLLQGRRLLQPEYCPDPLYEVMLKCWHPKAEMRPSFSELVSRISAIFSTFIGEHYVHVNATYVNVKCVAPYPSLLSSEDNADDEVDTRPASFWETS
In short: as §1

TLK2 = TLK2 (Homo sapiens, UniProt Q86UE8)
In short: as §1

NEK6 = NEK6 (Homo sapiens, UniProt Q9HC98)
In short: as §1

BMPR1B = BMPR1B (Homo sapiens, UniProt O00238)
Chain of BMPR1B (O00238 whole entry): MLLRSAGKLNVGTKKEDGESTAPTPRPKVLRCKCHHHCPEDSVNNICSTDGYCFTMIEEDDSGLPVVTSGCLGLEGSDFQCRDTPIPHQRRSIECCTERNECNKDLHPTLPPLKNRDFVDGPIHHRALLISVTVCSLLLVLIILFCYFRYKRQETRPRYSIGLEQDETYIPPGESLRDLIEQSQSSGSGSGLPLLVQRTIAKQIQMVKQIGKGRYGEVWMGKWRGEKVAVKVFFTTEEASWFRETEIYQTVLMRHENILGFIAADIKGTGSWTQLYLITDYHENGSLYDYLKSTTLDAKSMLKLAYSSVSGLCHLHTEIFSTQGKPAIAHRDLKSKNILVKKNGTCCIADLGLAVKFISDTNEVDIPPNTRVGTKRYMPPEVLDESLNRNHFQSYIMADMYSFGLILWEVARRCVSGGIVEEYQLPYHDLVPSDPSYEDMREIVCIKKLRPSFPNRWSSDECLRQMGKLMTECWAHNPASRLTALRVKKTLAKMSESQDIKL
In short: as §1

ADCK4 = target: T7, ADCK4 (Homo sapiens, UniProt Q96D53)
T7 construct: gene COQ8B
In short: as §1

ROS1 = ROS1 (Homo sapiens, UniProt P08922)
Chain of ROS1 (P08922 whole entry): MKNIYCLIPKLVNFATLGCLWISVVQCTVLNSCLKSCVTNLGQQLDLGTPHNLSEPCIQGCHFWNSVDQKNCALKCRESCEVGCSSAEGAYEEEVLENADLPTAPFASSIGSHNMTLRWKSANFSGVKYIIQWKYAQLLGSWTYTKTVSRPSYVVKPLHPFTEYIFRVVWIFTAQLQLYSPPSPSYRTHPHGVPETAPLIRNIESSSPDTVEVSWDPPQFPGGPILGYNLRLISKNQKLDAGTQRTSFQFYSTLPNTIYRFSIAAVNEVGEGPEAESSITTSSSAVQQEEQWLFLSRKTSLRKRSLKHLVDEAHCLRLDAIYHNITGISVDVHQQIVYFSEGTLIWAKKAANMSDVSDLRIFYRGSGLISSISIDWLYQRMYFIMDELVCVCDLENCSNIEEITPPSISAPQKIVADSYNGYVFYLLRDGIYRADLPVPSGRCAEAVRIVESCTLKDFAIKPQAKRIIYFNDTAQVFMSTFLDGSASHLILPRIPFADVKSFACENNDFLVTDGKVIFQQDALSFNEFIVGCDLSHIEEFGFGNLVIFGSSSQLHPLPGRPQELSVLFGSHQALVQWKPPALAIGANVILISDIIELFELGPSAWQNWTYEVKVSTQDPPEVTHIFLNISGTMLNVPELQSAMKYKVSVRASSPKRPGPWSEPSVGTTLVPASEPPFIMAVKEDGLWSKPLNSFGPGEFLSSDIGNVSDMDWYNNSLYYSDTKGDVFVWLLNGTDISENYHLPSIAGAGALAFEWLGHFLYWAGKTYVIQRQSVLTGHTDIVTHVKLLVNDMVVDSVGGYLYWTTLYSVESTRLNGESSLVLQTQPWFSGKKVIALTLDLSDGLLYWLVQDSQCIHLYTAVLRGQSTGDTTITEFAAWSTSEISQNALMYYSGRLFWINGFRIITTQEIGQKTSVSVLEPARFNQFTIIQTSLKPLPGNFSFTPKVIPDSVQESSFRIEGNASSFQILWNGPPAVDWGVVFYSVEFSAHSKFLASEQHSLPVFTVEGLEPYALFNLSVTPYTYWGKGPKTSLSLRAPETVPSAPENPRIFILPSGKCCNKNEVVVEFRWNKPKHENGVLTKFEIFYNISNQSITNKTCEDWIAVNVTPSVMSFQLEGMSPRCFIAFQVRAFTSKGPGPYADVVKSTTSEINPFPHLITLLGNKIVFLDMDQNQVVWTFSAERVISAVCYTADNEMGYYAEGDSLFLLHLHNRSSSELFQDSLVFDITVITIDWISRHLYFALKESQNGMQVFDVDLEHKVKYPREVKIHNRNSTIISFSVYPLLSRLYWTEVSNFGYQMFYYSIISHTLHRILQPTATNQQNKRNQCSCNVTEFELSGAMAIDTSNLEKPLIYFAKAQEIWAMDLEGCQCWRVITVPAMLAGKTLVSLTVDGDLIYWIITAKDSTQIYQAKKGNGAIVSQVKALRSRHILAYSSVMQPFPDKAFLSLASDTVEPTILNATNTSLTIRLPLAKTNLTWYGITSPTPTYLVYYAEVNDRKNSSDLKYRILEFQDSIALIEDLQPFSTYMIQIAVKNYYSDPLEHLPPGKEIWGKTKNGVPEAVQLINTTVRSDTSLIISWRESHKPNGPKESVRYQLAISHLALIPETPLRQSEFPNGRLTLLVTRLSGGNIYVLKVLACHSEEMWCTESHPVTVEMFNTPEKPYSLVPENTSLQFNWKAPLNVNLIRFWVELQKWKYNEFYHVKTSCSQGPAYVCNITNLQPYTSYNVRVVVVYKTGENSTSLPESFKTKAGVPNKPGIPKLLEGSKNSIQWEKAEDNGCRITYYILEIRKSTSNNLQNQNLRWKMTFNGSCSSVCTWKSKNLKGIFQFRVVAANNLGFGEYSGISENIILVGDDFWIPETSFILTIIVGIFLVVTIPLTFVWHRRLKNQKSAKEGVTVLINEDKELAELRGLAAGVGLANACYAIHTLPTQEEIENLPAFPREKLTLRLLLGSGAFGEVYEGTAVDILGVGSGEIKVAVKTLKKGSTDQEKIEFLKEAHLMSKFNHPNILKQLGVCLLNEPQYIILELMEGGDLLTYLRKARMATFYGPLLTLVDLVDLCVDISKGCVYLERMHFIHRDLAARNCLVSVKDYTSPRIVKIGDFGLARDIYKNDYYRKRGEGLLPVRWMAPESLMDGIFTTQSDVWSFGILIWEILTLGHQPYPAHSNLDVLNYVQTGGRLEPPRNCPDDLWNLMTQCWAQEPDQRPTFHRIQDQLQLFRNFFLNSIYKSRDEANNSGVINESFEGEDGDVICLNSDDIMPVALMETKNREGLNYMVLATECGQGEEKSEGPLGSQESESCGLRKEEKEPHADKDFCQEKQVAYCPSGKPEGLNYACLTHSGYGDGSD
In short: as §1

WEE1 = WEE1 (Homo sapiens, UniProt P30291)
Chain of WEE1 (P30291 whole entry): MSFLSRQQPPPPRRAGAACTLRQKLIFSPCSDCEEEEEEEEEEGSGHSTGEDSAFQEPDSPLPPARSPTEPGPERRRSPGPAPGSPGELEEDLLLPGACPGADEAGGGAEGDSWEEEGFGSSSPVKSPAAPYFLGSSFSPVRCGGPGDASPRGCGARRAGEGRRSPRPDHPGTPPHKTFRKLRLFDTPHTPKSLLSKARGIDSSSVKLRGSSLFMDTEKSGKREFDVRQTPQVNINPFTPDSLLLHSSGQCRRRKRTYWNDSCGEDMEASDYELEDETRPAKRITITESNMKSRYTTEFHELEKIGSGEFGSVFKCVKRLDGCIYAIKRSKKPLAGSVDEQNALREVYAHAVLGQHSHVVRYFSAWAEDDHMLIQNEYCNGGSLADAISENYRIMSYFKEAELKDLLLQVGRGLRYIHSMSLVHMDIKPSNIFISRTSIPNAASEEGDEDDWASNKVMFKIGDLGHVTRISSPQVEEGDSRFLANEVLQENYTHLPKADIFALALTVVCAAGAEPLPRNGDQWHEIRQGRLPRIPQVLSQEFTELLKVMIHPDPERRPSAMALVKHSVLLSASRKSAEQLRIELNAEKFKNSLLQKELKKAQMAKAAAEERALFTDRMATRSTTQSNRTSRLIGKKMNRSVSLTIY
In short: as §1

MARK3 = MARK3 (Homo sapiens, UniProt P27448)
In short: as §1

## CNS(=O)(=O)c1ccc(N(C)C)c(Nc2nc(C)nc3cc(OC)c(OC)cc23)c1 [compound 15, 3-((6,7-dimethoxy-2-methylquinazolin-4-yl)amino)-4-(dimethylamino)-N-methylbenzenesulfonamide]
TSSK3
  inhibition at 1 µM: 28%
PRKCH
  inhibition at 1 µM: 0%
DDR2
  inhibition at 1 µM: 38%
SLK
  inhibition at 1 µM: 0%
IRAK3
  inhibition at 1 µM: 3%
TRKA
  inhibition at 1 µM: 37%
PRKG1
  inhibition at 1 µM: 0%
PAK6
  inhibition at 1 µM: 3%
ROCK1
  inhibition at 1 µM: 34%
[1]
  inhibition at 1 µM: 33%
TRKC
  inhibition at 1 µM: 22%
ABL1-nonphosphorylated
  inhibition at 1 µM: 13%
TTK
  inhibition at 1 µM: 2%
CAMK2B
  inhibition at 1 µM: 0%
PRKR
  inhibition at 1 µM: 7%
[2]
  inhibition at 1 µM: 0%
MET
  inhibition at 1 µM: 0%
TLK2
  inhibition at 1 µM: 0%
NEK6
  inhibition at 1 µM: 0%
BMPR1B
  inhibition at 1 µM: 31%
ADCK4
  inhibition at 1 µM: 0%
ROS1
  inhibition at 1 µM: 0%
WEE1
  inhibition at 1 µM: 7%
MARK3
  inhibition at 1 µM: 0%
